Our source for the melting point values is a melting point compilation (Tetko et al.; mined from patent text by program, amines drawn as free bases though some values may be those of a salt).

Bounds are passed on as bounds.

Turning to `CC(C)(C)OC(=O)Cc1n[nH]c(=O)c2ccccc12`, the melting point was in the range of 164 to 166 °C.

`N#CC=Cc1ccc(C=Cc2ccc(Br)cc2)cc1` showed a melting point of 258 °C.

The compound `O=C(CCO)Cc1cccc(OCc2ccc3ccccc3n2)c1` yielded a melting point of 116 to 119 °C.

For the compound `COc1cc2c(c3c1OC(C)(C)C3)C(c1cccc(N3CCNS3)c1)=NC(C)(C)C2`, the melting point fell in the range of 145 to 147 °C.

Turning to `CCOC(=O)c1c(CN(CC)CC)nc2sc3ncccc3c2c1-c1ccc(OC)c(OC)c1`, the melting point was in the range of 156 to 157 °C.

The compound `CC(C)c1ccc(-c2nc(-c3cccc(C(=O)O)c3)cs2)cc1` registered a melting point of 193 to 195 °C.

`O=c1[nH]c2ccc(CCN3CCN(c4nncc5ccccc45)CC3)cc2o1` came in with a melting point of 200 °C.

`CC(C)(C)c1cc(NC(=O)NCCc2ccc([N+](=O)[O-])cc2)cc(C(C)(C)C)c1O`: the melting point was 185 to 187 °C.

`CCc1cc2c(-c3ccccc3Cl)c([N+](=O)[O-])cnc2s1` yielded a melting point of 72 to 73 °C.

The compound `CCCc1nc(C)cn1-c1cc(F)ccc1[N+](=O)[O-]` yielded a melting point of 36 to 39 °C.

`CCCn1nc2c(N)nc3ccccc3c2c1CC(C)(C)O`: the melting point was in the range of 188 to 190 °C.

The compound `Nc1c(O)cc(Cl)cc1C(=O)C(F)(F)F` returned a melting point of 120 to 122 °C.

With `O=C1CC(CO)(C(=O)N(Cc2ccccc2)Cc2ccccc2)CN1Cc1ccccc1` (stereo not drawn), the melting point lay in the range of 127 to 129 °C.

The compound `CCOC(=O)c1cc([N+](=O)[O-])c(Nc2cccc(C)n2)c(S(N)(=O)=O)c1` came in with a melting point of 203 to 204 °C.

`COC1=C(CCO)C(=O)C(OC)=C(CCCCCC2=C(OC)C(=O)C(CCO)=C(OC)C2=O)C1=O` had a melting point of 97 to 99 °C.

As for `COc1ccc(S(=O)(=O)Nc2c(C#N)cc(C)cc2C(=O)O)cc1`, the melting point is 162 °C.

On to `FC(F)(F)C(Cl)=NC(c1ccccc1)(c1ccccc1)c1ccccc1`, for which the melting point was 144 to 145 °C.

Take `COc1ccc2c(c1)c(Cc1cc(=O)n(-c3cccc([N+](=O)[O-])c3)[nH]1)c(C)n2C(=O)c1ccc(Cl)cc1`: the melting point fell in the range of 95 to 97 °C.

In the case of `CCn1c(=O)nc(-c2ccccc2)c2cc(Cl)ccc21`, the melting point was in the range of 176 to 178 °C.

Regarding `CC(C)(CCCCC(=O)CCCCC(C)(C)C(=O)O)C(=O)O`, the melting point lay within 60 to 61.5 °C.

`Nc1cc([N+](=O)[O-])cc(CCO)c1N` had a melting point of 172 °C.

In turn, `Cc1ccc(S(=O)(=O)O[C@H]2CCN(S(=O)(=O)c3ccc(C)cc3)C2)cc1` registered a melting point of 110 °C.

Compound `O=CCNc1[nH]c(-c2ccc(F)cc2)nc1-c1ccccc1` yielded a melting point of 256 to 258 °C.

`CC(C)CCN1C(=O)C(NC(=O)Nc2ccccc2)C(=O)Nc2ccccc21` (stereo not drawn) displayed a melting point of 249 to 250 °C.

As to `CC1(C)OC(=O)C(c2cccc3nnsc23)C(=O)O1`, the melting point was in the range of 170 to 172 °C.

Consider `CN(CCC(Oc1ccc(C(F)(F)F)cc1)c1ccccc1)Cc1ccccc1` (stereo not drawn), for which the melting point lay within 42 to 44 °C.

As to `COCc1cnc2nc(N)nc(N)c2n1`, the melting point lay within 248 to 251 °C.

Regarding `CN1CC2CN(C(=O)N3c4ccccc4C(=O)Nc4cccnc43)CC2C1` (stereo not drawn), the melting point lay within 157 to 159 °C.

`CCCc1c(O)ccc2[nH]c(C(=O)OCC)cc12` registered a melting point of 185 to 186 °C.

`C=C(c1ccc(OC)c(OC2CCCC2)c1)c1n[nH]cc1CO` registered a melting point of 121 to 123 °C.

Consider `O=C1CCc2cc(-c3cccnc3)ccc21`, for which the melting point lay within 103 to 106 °C.

With `CCOC(=O)C1=Cc2cc(Cl)cc(C#CCCCCl)c2OC1C(F)(F)F` (stereo not drawn), the melting point was 84.8 to 85.9 °C.

Regarding `CC(=O)OC1CSC(Oc2ccc(-c3sc(C)nc3C)nc2)C(OC(C)=O)C1OC(C)=O` (stereo not drawn), the melting point lay in the range of 174 to 177 °C.

`CCOC(=O)c1c(C(F)(F)F)nc(C(F)(F)Cl)c(C(=O)OC)c1Cl` had a melting point of 57.5 to 59.5 °C.

As for `N#CNC(=NC1CCN(Cc2ccccc2)CC1)NC1CCc2ccccc21` (stereo not drawn), the melting point lay within 159 to 160 °C.

On to `CCc1c(Cl)c(Oc2ncc(C(F)(F)F)cc2Cl)nn1C(=O)NC`, for which the melting point fell in the range of 88 to 89 °C.

`Cc1c([N+](=O)[O-])cc(S(F)(F)(F)(F)F)cc1[N+](=O)[O-]` yielded a melting point of 108 to 109 °C.

On to `CCc1nc(CN(C)C(=O)N[C@H](C(=O)N[C@@H](Cc2ccccc2)C[C@H](O)[C@H](Cc2ccccc2)NC(=O)OCc2cncs2)C(C)C)cs1`, for which the melting point fell in the range of 70 to 71 °C.

Take `CN1C(C(=O)Nc2nc3c(s2)CCCC3)=C(O)c2ccc3ccccc3c2S1(=O)=O`: the melting point is 255 to 257 °C.

Take `Cc1c(OCCSCc2ccco2)ccnc1CNc1ncncc1Cl`: the melting point lay in the range of 129 to 130 °C.

In turn, `CC(Cl)(Cl)C(NC(=O)c1cc(F)cc(F)c1)NC(=NC#N)Nc1ccc(C(F)(F)F)nc1` (stereo not drawn) returned a melting point of 202 to 203 °C.

Compound `CC(C)(C)C(=O)NCCc1cccs1` displayed a melting point of 79 to 80 °C.

For the compound `N#Cc1cnn2c(C(F)(F)F)cc(-c3cccc(Cl)c3)nc12`, the melting point stood at 204 °C.

`O=C(O)[C@@H]1CCCN(CC#CCN2c3ccccc3CCc3ccccc32)C1` displayed a melting point of 153 to 154 °C.

In turn, `COc1ccccc1N1CCN(CC(O)COc2cc(C)c(O)c(C)c2C)CC1` (stereo not drawn) registered a melting point of 163 to 165 °C.

`O=C(CCCN1CCN(c2cccc(Cl)c2)CC1)N1CCc2ccccc21` yielded a melting point of 102 to 107 °C.

In turn, `Nc1nc(O)c2ccnc-2[nH]1` yielded a melting point above 300 °C.

In turn, `C=C(C)COc1cc(C)c(NC(C)=O)c(C)c1C` yielded a melting point of 149 to 150 °C.

`Nc1cccc(-c2ccc(CCN3CCN(C(=O)Nc4ccccc4)CC3)cc2)n1` showed a melting point of 60 °C.

Regarding `CC(C)(C)NC(=O)OC1CCN(c2cccc(C(F)(F)F)c2)C1=O` (stereo not drawn), the melting point fell in the range of 115 to 117 °C.

Compound `CCOc1ccc2c(=O)c(-c3nnnn3C)cn(C)c2c1` displayed a melting point of 214 to 217 °C.

The compound `Oc1cccc2c1c1cccc(F)c1n2Cc1ccccc1` showed a melting point of 155 to 156 °C.

In the case of `COC(=O)C1C=CCN2C(=O)C(C)(CCO)C(=O)N12` (stereo not drawn), the melting point is 97 to 99 °C.

`Cc1cccc(C)c1N1CC(C)N(c2cccc(C(F)(F)F)c2)C1=N` (stereo not drawn) came in with a melting point of 160 to 166 °C.

`CNC(=O)c1cccc(CNc2ccccc2C(=O)Nc2cccc(C(F)(F)F)c2)c1` gave a melting point of 166 to 167 °C.

As for `OCC1OC(n2cnc3c(NN4CCOCC4)nc(Cl)nc32)C(O)C1O` (stereo not drawn), the melting point lay within 160 to 161 °C.

Turning to `COc1ccc(-c2nnc3c4ccccc4c(Nc4ccc(-c5nnn(C)n5)cc4)nn23)cc1`, the melting point was in the range of 289 to 293 °C.

`O=C(O)CN1C(=O)C(=Cc2csc(Nc3ccccc3)n2)SC1=S` came in with a melting point of 242 to 246 °C.

In turn, `O=c1[nH]c2cc(Cl)ccc2c(O)c1-c1cccc(C#Cc2ccccc2)c1` returned a melting point of 297 to 300 °C.

In the case of `CN(C)c1ccc(-c2cccc(-c3ccnc4c(C(=O)c5cccs5)cnn34)c2)cc1`, the melting point fell in the range of 200 to 202 °C.

`CC(=O)OC1CSC(Oc2cncc(-c3ccncc3C)c2)C(OC(C)=O)C1OC(C)=O` (stereo not drawn): the melting point lay in the range of 153 to 174 °C.

In the case of `CC(C)(C)[Si](C)(C)OCCCn1ccc2c3c(c(-c4ccccc4Cl)cc21)C(=O)NC3=O`, the melting point was 158 to 160 °C.

Regarding `NC(=O)O[C@@](c1cc(F)cc(Cl)c1)(c1cc2cn[nH]c2cc1F)[C@@H]1CCCCN1`, the melting point was 220 °C.

As for `COc1ccsc1CN=C(NC#N)Oc1ccccc1`, the melting point is 170 to 171 °C.

In turn, `COCCOc1ccc(-c2ccc3c(c2)C=C(C(=O)Nc2ccc(CN(C)C4CCOCC4)cc2)CCS3(=O)=O)cc1` showed a melting point of 227 to 231 °C.

Compound `COCCOc1ccc(CCNC(=O)/C=C/c2cccs2)cc1S(N)(=O)=O` registered a melting point of 140 °C.

For `CC(=O)OCC(=O)C1(OC(=O)c2ccccc2)CCC2C3CC(C)C4=CC(=O)CCC4(C)C3C(O)CC21C` (stereo not drawn), the melting point stood at 210 °C.

On to `CCCS(=O)(=O)c1nc2cc(-n3nc(C)n(C)c3=O)c(F)cc2s1`, for which the melting point fell in the range of 196 to 198 °C.

In turn, `CCCCS(=O)(=O)NC1Cc2ccc(-c3ccc(=O)[nH]n3)cc2C1` (stereo not drawn) yielded a melting point of 195 to 196 °C.

In turn, `CN(CCCCCC(=O)NO)C(=O)/C=C/C=C/c1ccccc1` returned a melting point of 145 to 147 °C.

Consider `CN(C(=O)C(C)(C)c1cc(C(F)(F)F)cc(C(F)(F)F)c1)c1ccc(Cl)cc1C(=O)c1ccccc1`, for which the melting point lay in the range of 89 to 91 °C.

`CC(=O)Nc1ccc(-c2coc3cc(OC(C)=O)c(O)cc3c2=O)cc1` showed a melting point of 265 to 266 °C.

Turning to `CCCCOC(=O)NC(=O)C1c2ccccc2Sc2ccccc21`, the melting point lay in the range of 151 to 154 °C.

In turn, `COc1ccccc1/C(=C/C=C/C(=O)NCCCCc1cccnc1)c1ccccc1` had a melting point of 66 to 68 °C.

Take `CN(C(=O)C(Cl)(Cl)Cl)c1nc(C(Cl)(Cl)Cl)ns1`: the melting point turned out to be 223 °C.

Consider `COc1cccc(C=CC(=O)Cl)c1`, for which the melting point fell in the range of 43 to 45 °C.

`CCOC(=O)C1=C(C)NC(C#N)=C(C(=O)OCC)C1c1ccccc1[N+](=O)[O-]` (stereo not drawn) registered a melting point of 126 to 128 °C.

`CCCn1c(COCC)nc2c(N)nc3ccc(OCCNC(=O)C4CCCO4)cc3c21` (stereo not drawn) showed a melting point of 202 to 204 °C.

Compound `O=C(O)C(=O)CC(=O)c1cccn1Cc1ccc(Cl)cc1` displayed a melting point of 182 to 184 °C.

`COC(=O)c1ccc(CN(O)Cc2ccc(C(=O)OC)cc2)cc1` gave a melting point of 129 to 131 °C.

Consider `CC(C)(CO)CCCCCCC(O)CCCCCCC(C)(C)CO`, for which the melting point fell in the range of 75 to 77 °C.

Compound `O=C1c2ccccc2C(=O)N1Cc1ccc(I)cc1` yielded a melting point of 138 to 139 °C.

`COc1ccccc1SC(CCc1ccc(Cl)cc1)Cn1ccnc1` (stereo not drawn) came in with a melting point of 105 to 106 °C.

`NC(Cc1nc2cc3ccccc3cc2nc1CP(=O)(O)O)C(=O)OCc1ccccc1` (stereo not drawn) gave a melting point of 215 °C.

Take `CCOC(=O)c1nc(NC)sc1-c1ccccn1`: the melting point is 120 to 121 °C.

Consider `CC(C)(OCc1cc2cc(Cl)ccc2n1S(=O)(=O)c1ccc2c(c1)CCO2)C(=O)O`, for which the melting point was 130 to 132 °C.

With `CON=C(CBr)c1ccc(Cl)cc1`, the melting point was 57 to 60 °C.

As to `CC(C)NC(COc1ccccc1C(=O)Nc1cccc2[nH]ccc12)NC(C)C`, the melting point was 180 °C.
